In patent publication US20130102593A1, “PYRROLIDINE COMPOUNDS WHICH INHIBIT BETA-SECRETASE ACTIVITY AND METHODS OF USE THEREOF” (priority 2008, published 2013):
pIC50: −log10 of the molar value.

What follows are compounds tested on Aβ production (assay: Cellular Aβ IC50 determination (memapsin 2 activity in a cellular assay of Aβ production)). Settings: Cricetulus griseus; Chinese hamster ovary cells over-expressing human APP695 with London and Swedish mutations, 24 h, Aβ40 sandwich ELISA; read-out: M2 IC50.
Type: cell-based, Chinese hamster
Experimental: The potency of compounds against memapsin 2 activity was determined in a cellular assay of Aβ production. […] Chinese hamster ovary cells that over-express human APP695 with the London and Swedish mutations were seeded in multi-well plates at 10% confluency. Compounds are dissolved in DMSO to concentrations near 1 mM, and diluted into culture media to a final concentration near 4 μM (final 0.4% DMSO). Compounds were diluted serially and applied to cells in multi-well plates 48 h after seeding. Incubation was continued in 5% CO2 at 37° C. for 24 h. Aliquots were removed and assayed for […] content using a sandwich ELISA (BioSource International). Amount of Aβ40 over the range of concentration of compounds, relative to control incubations, were fit to a 4-parameter IC50 model.

| SMILES | pIC50 |
| --- | --- |
| Cc1csc([C@H]2CCCN2C(=O)c2cc(CF)cc(C(=O)N[C@H](Cc3ccccc3)[C@H](O)[C@H]3C[C@@H](OCc4ccccc4)CN3)c2)n1 [1-45, N-((1R,2R)-1-((2R,4R)-4-(benzyloxy)pyrrolidin-2-yl)-1-hydroxy-3-phenylpropan-2-yl)-3-(fluoromethyl)-5-((R)-2-(4-methylthiazol-2-yl)pyrrolidine-1-carbonyl)benzamide] | < 6.00 |
| Cc1csc([C@H]2CCCN2C(=O)c2cc(C(=O)N[C@@H](Cc3ccccc3)[C@H](O)[C@H]3CCCN3)cc(N3CCC(F)(F)CC3)c2)n1 [1-46, 3-(4,4-difluoropiperidin-1-yl)-N-((1R,2S)-1-hydroxy-3-phenyl-1-((R)-pyrrolidin-2-yl)propan-2-yl)-5-((R)-2-(4-methylthiazol-2-yl)pyrrolidine-1-carbonyl)benzamide] | 6.00 to 6.30 |
| Cc1csc([C@H]2CCCN2C(=O)c2cccc(C(=O)N[C@@H](Cc3ccccc3)[C@H](O)[C@H]3C[C@H](F)CN3)c2)n1 [1-47, N-((1R,2S)-1-((2R,4S)-4-fluoropyrrolidin-2-yl)-1-hydroxy-3-phenylpropan-2-yl)-3-((R)-2-(4-methylthiazol-2-yl)pyrrolidine-1-carbonyl)benzamide] | < 6.00 |
| Cc1csc([C@H]2CCCN2C(=O)c2cccc(C(=O)N[C@@H](Cc3ccccc3)[C@H](O)[C@@H]3CCCN3)c2)n1 [1-48, N-((1R,2S)-1-hydroxy-3-phenyl-1-((S)-pyrrolidin-2-yl)propan-2-yl)-3-((R)-2-(4-methylthiazol-2-yl)pyrrolidine-1-carbonyl)benzamide] | < 6.00 |
| Cc1csc([C@H]2CCCN2C(=O)c2cc(C(=O)N[C@@H](Cc3cc(F)cc(F)c3)[C@H](O)[C@H]3CCCN3)cc(-c3ncco3)c2)n1 [1-49, N-((1R,2S)-3-(3,5-difluorophenyl)-1-hydroxy-1((R)-pyrrolidin-2-yl)propan-2-yl)-3-((R)-2-(4-methylthiazol-2-yl)pyrrolidine-1-carbonyl)-5-(oxazol-2-yl)benzamide] | > 6.30 |
| Cc1csc([C@H]2CCCN2C(=O)c2cc(C(=O)N[C@@H](Cc3ccccc3)[C@H](O)[C@H]3CCCN3)cc(C3CC3)c2)n1 [1-50, 3-cyclopropyl-N-((1R,2S)-1-hydroxy-3-phenyl-1-((R)-pyrrolidin-2-yl)propan-2-yl)-5-((R)-2-(4-methylthiazol-2-yl)pyrrolidine-1-carbonyl)benzamide] | < 6.00 |
| Cc1csc([C@H]2CCCN2C(=O)c2cccc(C(=O)N[C@@H](Cc3ccccc3)[C@H](O)[C@H]3CC[C@@H](C)N3)c2)n1 [1-51, N-((1R,2S)-1-hydroxy-1-((2R,5R)-5-methylpyrrolidin-2-yl)-3-phenylpropan-2-yl)-3-((R)-2-(4-methylthiazol-2-yl)pyrrolidine-1-carbonyl)benzamide] | < 6.00 |
| Cc1csc([C@H]2CCCN2C(=O)c2cc(C(=O)N[C@@H](Cc3ccccc3)[C@H](O)[C@H]3C[C@@H](OCc4ccccc4)CN3)cc(-c3ncco3)c2)n1 [1-52, N-((1R,2S)-1-((2R,4R)-4-(benzyloxy)pyrrolidin-2-yl)-1-hydroxy-3-phenylpropan-2-yl)-3-((R)-2-(4-methylthiazol-2-yl)pyrrolidine-1-carbonyl)-5-(oxazol-2-yl)benzamide] | > 6.30 |
| Cc1csc([C@H]2CCCN2C(=O)c2cccc(C(=O)N[C@@H](Cc3cccc(F)c3)[C@H](O)[C@H]3CCCN3)c2)n1 [1-53, N-((1R,2S)-3-(3-fluorophenyl)-1-hydroxy-1-((R)-pyrrolidin-2-yl)propan-2-yl)-3-((R)-2-(4-methylthiazol-2-yl)pyrrolidine-1-carbonyl)benzamide] | 6.00 to 6.30 |

More lines, now with the values ahead:

| pIC50 | SMILES |
| --- | --- |
| > 6.30 | Cc1csc([C@H]2CCCN2C(=O)c2cncc(C(=O)N[C@@H](Cc3ccccc3)[C@H](O)CNCc3cc(Cl)nc(N(C)C)c3)c2)n1 [2-1, N-((2S,3R)-4-((2-chloro-6-(dimethylamino)pyridin-4-yl)methylamino)-3-hydroxy-1-phenylbutan-2-yl)-5-((R)-2-(4-methylthiazol-2-yl)pyrrolidine-1-carbonyl)nicotinamide, reference compound] |
| > 6.30 | Cc1csc([C@H]2CCCN2C(=O)c2cc(C(=O)N[C@@H](Cc3ccccc3)[C@H](O)CNCc3cncc(C(C)C)c3)cc(-c3ccco3)c2)n1 [2-2, 3-(furan-2-yl)-N-((2S,3R)-3-hydroxy-4-((5-isopropylpyridin-3-yl)methylamino)-1-phenylbutan-2-yl)-5-((R)-2-(4-methylthiazol-2-yl)pyrrolidine-1-carbonyl)benzamide, reference compound] |
| > 6.30 | Cc1cc(C(=O)N[C@@H](Cc2ccccc2)[C@H](O)CNCc2cncc(C(C)(C)C)c2)cc(C(=O)N2CCC[C@@H]2c2nc(C)co2)c1 [2-3, N-((2S,3R)-4-((5-tert-butylpyridin-3-yl)methylamino)-3-hydroxy-1-phenylbutan-2-yl)-3-methyl-5-((R)-2-(4-methyloxazol-2-yl)pyrrolidine-1-carbonyl)benzamide, reference compound] |
| > 6.30 | Cc1coc([C@H]2CCCN2C(=O)c2cccc(C(=O)N[C@@H](Cc3ccccc3)[C@H](O)CNCc3cncc(C(C)(C)C)c3)c2)n1 [2-4, N-((2S,3R)-4-((5-tert-butylpyridin-3-yl)methylamino)-3-hydroxy-1-phenylbutan-2-yl)-3-((R)-2-(4-methyloxazol-2-yl)pyrrolidine-1-carbonyl)benzamide, reference compound] |
| > 6.30 | CCn1cc(CNC[C@@H](O)[C@H](Cc2ccccc2)NC(=O)c2cc(C)cc(C(=O)N3CCC[C@@H]3c3nc(C)co3)c2)cn1 [2-5, N-((2S,3R)-4-((1-ethyl-1H-pyrazol-4-yl)methylamino)-3-hydroxy-1-phenylbutan-2-yl)-3-methyl-5-((R)-2-(4-methyloxazol-2-yl)pyrrolidine-1-carbonyl)benzamide, reference compound] |
| > 6.30 | C=C(C)c1cccc(CNC[C@@H](O)[C@H](Cc2ccccc2)NC(=O)c2cccc(C(=O)N3CCC[C@@H]3c3nc(C)co3)c2)c1 [2-6, N-((2S,3R)-3-hydroxy-1-phenyl-4-(3-(prop-1-en-2-yl)benzylamino)butan-2-yl)-3-((R)-2-(4-methyloxazol-2-yl)pyrrolidine-1-carbonyl)benzamide, reference compound] |
| > 6.30 | Cc1coc([C@H]2CCCN2C(=O)c2cc(CF)cc(C(=O)N[C@@H](Cc3ccccc3)[C@H](O)CNCc3cccc(C(C)(C)C)c3)c2)n1 [2-7, N-((2S,3R)-4-(3-tert-butylbenzylamino)-3-hydroxy-1-phenylbutan-2-yl)-3-(fluoromethyl)-5-((R)-2-(4-methyloxazol-2-yl)pyrrolidine-1-carbonyl)benzamide, reference compound] |
| > 6.30 | Cc1cc(C(=O)N[C@@H](Cc2ccccc2)[C@H](O)CNCc2cncc(C(C)C)c2)cc(C(=O)N2CCC[C@@H]2c2nc(C)cs2)c1 [2-8, N-((2S,3R)-3-hydroxy-4-((5-isopropylpyridin-3-yl)methylamino)-1-phenylbutan-2-yl)-3-methyl-5-((R)-2-(4-methylthiazol-2-yl)pyrrolidine-1-carbonyl)benzamide, reference compound] |
| > 6.30 | Cc1csc(CN(C(=O)c2cccc(C(=O)N[C@@H](Cc3ccccc3)[C@H](O)CNCc3cccc(C(F)(F)F)c3)c2)C2CC2)n1 [2-9, N1-cyclopropyl-N3-((2S,3R)-3-hydroxy-1-phenyl-4-(3-(trifluoromethyl)benzylamino)butan-2-yl)-N1-((4-methylthiazol-2-yl)methyl)isophthalamide, reference compound] |
| > 6.30 | Cc1csc([C@H]2CCCN2C(=O)c2cccc(C(=O)N[C@@H](Cc3ccccc3)[C@H](O)CNCc3cccc(C(C)(C)C)c3)c2)n1 [2-10, N-((2S,3R)-4-(3-tert-butylbenzylamino)-3-hydroxy-1-phenylbutan-2-yl)-3-((R)-2-(4-methylthiazol-2-yl)pyrrolidine-1-carbonyl)benzamide, reference compound] |
